According to patent US11725011B2, “Bicyclic urea kinase inhibitors and uses thereof” (The Broad Institute, Inc., priority 2016, dated 2023):

Legend:
Experiment in all cases: KINOMEscan
Assay type in all cases: binding
Details in all cases: 1 uM
[1] = target: ABL1 (Q252H)-nonphosphorylated (Homo sapiens (Human), UniProt P00519, Q252H)
BRAF = BRAF (Homo sapiens (Human), UniProt P15056)
CLK4 = CLK4 (Homo sapiens (Human), UniProt Q9HAZ1)
EPHA8 = EPHA8 (Homo sapiens (Human), UniProt P29322)
HIPK2 = HIPK2 (Homo sapiens (Human), UniProt Q9H2X6)
Sequence of HIPK2 (Q9H2X6 whole entry): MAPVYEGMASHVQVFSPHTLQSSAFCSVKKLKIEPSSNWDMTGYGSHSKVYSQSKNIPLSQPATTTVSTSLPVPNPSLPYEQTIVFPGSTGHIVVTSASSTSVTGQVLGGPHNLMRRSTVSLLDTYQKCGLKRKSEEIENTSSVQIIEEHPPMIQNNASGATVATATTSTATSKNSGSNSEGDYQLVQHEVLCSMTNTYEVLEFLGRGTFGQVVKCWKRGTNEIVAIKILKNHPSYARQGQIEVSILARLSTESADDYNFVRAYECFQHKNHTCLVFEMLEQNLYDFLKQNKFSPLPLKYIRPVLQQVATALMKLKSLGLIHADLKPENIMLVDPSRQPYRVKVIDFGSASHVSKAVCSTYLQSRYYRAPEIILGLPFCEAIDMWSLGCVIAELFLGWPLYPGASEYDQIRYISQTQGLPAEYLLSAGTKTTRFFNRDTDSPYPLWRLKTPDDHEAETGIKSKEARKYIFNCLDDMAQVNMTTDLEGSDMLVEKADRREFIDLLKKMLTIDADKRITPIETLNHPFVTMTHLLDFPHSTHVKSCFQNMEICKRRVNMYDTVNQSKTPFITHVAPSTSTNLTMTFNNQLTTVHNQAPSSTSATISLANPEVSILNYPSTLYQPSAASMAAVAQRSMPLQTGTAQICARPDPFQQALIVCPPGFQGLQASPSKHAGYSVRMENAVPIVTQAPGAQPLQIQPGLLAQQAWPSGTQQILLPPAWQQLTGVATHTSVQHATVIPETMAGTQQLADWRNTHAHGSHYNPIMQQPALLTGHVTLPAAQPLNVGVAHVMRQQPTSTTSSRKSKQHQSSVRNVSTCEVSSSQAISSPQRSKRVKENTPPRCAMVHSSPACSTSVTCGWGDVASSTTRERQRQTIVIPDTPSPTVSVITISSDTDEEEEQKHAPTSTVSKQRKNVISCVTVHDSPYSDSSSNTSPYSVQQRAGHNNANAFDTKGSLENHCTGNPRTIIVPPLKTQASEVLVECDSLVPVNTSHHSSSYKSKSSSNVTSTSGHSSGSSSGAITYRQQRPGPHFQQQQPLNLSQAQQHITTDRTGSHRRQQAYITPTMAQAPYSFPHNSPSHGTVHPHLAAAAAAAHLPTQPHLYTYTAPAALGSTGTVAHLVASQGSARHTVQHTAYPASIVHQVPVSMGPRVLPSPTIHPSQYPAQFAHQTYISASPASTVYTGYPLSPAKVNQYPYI

MARK4 = MARK4 (Homo sapiens (Human), UniProt Q96L34)
MEK5 = MEK5 (Homo sapiens (Human), UniProt Q13163)
Sequence of MEK5 (Q13163 whole entry): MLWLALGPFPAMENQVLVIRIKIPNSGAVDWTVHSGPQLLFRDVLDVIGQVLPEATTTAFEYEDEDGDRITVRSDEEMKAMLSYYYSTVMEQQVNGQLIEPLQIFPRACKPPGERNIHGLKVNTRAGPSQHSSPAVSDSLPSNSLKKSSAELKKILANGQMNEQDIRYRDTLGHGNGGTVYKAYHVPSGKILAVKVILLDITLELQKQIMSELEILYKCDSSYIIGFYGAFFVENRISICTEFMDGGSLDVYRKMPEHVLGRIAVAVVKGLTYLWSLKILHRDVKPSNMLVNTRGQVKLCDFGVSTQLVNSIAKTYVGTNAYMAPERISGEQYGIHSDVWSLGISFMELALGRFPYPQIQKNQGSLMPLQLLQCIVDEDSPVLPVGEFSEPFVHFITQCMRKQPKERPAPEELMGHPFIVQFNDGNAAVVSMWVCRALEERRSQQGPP

MET = MET (Homo sapiens (Human), UniProt P08581)
NDR2 = NDR2 (Homo sapiens (Human), UniProt Q9Y2H1)
Sequence of NDR2 (Q9Y2H1 whole entry): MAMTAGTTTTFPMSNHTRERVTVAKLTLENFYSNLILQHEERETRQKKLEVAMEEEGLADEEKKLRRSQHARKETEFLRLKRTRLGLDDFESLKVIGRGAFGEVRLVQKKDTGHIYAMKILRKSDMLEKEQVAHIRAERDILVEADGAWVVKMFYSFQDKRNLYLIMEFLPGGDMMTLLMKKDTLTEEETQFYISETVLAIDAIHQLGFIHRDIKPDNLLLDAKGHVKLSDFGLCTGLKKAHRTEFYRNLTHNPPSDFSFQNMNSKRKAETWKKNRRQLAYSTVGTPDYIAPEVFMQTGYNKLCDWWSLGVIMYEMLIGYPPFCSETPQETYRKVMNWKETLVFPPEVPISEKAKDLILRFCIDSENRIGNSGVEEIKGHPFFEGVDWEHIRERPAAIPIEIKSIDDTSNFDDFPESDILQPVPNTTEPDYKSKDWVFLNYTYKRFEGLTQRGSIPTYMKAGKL

PHKG2 = PHKG2 (Homo sapiens (Human), UniProt P15735)
PIK4CB = PIK4CB (Homo sapiens (Human), UniProt Q9UBF8)
[2] = target: RSK1 (Kin.Dom.1-N-terminal) (Homo sapiens (Human), UniProt Q15418)
YANK3 = YANK3 (Homo sapiens (Human), UniProt Q86UX6)
Sequence of YANK3 (Q86UX6 whole entry): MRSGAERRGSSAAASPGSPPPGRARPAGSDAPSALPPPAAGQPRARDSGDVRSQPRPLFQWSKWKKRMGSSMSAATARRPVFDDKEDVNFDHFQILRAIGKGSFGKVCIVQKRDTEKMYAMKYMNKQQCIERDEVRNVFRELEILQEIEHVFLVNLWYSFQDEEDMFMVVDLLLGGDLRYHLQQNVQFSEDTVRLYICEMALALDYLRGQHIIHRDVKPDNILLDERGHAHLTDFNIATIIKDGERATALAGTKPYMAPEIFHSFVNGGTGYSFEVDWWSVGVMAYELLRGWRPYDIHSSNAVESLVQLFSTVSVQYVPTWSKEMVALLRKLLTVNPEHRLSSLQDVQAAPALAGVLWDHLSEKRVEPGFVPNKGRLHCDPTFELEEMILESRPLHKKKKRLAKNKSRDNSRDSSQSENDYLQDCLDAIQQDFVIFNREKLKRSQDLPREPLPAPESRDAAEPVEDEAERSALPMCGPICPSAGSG

Sequence of EPHA8 (P29322 28-1005): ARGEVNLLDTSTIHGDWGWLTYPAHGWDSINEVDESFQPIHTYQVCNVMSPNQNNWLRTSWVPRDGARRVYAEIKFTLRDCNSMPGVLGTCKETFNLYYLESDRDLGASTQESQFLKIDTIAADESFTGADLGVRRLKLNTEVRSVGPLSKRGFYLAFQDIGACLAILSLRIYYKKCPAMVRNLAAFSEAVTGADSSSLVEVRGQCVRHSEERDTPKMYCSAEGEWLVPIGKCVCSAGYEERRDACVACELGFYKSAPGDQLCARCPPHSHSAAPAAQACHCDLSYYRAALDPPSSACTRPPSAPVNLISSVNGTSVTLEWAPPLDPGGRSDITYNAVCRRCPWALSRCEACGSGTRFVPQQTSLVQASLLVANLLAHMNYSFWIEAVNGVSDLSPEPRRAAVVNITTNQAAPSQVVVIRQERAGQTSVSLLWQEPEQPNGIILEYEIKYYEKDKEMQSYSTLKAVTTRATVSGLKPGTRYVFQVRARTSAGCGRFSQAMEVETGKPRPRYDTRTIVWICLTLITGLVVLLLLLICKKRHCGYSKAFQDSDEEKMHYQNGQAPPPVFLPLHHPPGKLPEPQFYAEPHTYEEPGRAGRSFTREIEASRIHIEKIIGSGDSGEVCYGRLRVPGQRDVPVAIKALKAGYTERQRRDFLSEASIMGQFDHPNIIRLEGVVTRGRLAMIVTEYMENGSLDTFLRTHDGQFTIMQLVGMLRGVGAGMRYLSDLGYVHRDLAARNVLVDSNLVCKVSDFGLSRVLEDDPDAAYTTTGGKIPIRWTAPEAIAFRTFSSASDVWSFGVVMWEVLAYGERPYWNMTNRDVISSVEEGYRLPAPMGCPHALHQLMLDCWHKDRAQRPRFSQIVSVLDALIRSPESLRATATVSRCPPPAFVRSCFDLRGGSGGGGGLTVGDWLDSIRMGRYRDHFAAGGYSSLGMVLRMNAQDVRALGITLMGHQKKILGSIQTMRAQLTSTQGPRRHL
Sequence of BRAF (P15056 whole entry): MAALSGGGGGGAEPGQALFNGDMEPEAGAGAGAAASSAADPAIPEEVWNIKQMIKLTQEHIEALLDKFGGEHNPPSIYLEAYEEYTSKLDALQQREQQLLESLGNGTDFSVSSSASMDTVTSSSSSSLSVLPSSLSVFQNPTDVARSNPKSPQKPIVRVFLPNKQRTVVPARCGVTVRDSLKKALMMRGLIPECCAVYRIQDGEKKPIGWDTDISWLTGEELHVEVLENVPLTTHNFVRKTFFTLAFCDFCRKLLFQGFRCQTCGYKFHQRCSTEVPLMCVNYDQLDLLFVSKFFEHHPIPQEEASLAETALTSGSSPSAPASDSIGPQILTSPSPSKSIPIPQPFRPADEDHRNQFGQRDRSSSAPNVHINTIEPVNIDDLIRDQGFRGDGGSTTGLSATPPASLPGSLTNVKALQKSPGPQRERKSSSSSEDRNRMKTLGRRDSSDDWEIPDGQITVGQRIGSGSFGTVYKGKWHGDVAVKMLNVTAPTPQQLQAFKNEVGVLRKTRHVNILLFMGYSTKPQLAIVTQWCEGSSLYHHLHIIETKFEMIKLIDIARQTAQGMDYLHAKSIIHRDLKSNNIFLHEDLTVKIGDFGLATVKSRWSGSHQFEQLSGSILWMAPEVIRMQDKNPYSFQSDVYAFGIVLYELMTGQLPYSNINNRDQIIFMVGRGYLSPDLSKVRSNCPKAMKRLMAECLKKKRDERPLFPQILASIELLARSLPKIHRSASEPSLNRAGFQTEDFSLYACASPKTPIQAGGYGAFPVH
Sequence of CLK4 (Q9HAZ1 whole entry): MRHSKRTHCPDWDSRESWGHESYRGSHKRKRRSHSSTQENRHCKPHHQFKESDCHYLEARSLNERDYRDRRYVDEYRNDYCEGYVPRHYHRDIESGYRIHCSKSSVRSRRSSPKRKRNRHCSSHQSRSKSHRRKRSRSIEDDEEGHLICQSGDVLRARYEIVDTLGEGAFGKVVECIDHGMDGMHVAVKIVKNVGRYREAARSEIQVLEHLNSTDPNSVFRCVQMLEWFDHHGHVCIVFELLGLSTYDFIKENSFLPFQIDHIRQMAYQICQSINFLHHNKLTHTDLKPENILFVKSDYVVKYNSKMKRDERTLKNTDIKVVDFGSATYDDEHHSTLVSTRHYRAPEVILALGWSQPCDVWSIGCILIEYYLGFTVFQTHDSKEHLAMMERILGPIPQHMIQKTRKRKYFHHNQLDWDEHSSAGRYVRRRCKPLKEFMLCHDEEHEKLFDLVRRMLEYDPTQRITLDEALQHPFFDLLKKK

In the case of `COc1ccc(N2C(=O)N(c3c(C)cccc3C)Cc3cnc(Nc4ccc(N5CCN(C)CC5)cc4)nc32)c(OC)c1` [HG-11-136-01], the “KINOMEscan ABL1 (Q252H)-nonphosphorylated” value [1] is reported as 0, the “KINOMEscan BRAF” value (BRAF) is reported as 26 and the “KINOMEscan CLK4” value (CLK4) is reported as 33. The “KINOMEscan EPHA8” value (EPHA8) was 0.9, the “KINOMEscan HIPK2” value (HIPK2) was 0.95 and the “KINOMEscan MARK4” value (MARK4) was 32. The “KINOMEscan MEK5” value (MEK5) was 0.1, the “KINOMEscan MET” value (MET) was 66 and the “KINOMEscan NDR2” value (NDR2) was 28. The “KINOMEscan PHKG2” value (PHKG2) was 93, the “KINOMEscan PIK4CB” value (PIK4CB) was 63 and the “KINOMEscan RSK1 (Kin.Dom.1-N-terminal)” value [2] was 48. The “KINOMEscan YANK3” value (YANK3) was 32.
